Experimental data from ChEMBL document CHEMBL2176963, “Design, synthesis, and biological evaluation of 3-(1H-1,2,3-triazol-1-yl)benzamide derivatives as Potent Pan Bcr-Abl inhibitors including the threonine(315)→isoleucine(315) mutant” (J Med Chem, 2012).

Key:
[1] = Antiproliferative activity against mouse BA/F3 cells expressing wild type Bcr-Abl after 72 hrs by CCK-8 assay; conditions: BaF3, 72 h
K562 [2] = experiment: Antiproliferative activity against human K562 cells expressing wild type Bcr-Abl after 72 hrs by CCK-8 assay; conditions: K562, 72 h
K562 [3] = experiment: Antiproliferative activity against imatinib-resistant human K562 cells expressing Bcr-Abl Q252H mutant after 72 hrs by CCK-8 assay; conditions: K562, 72 h
[4] = Antiproliferative activity against human KU812 cells expressing wild type Bcr-Abl after 72 hrs by CCK-8 assay; conditions: KU812, 72 h
cells = conditions: Mus musculus, BaF3, 72 h

Structure (SMILES) | IC50 (K562 [2]) | IC50 (K562 [3]) | IC50 (cells) | IC50 [1] | IC50 [4]
Cc1ccc(C(=O)Nc2ccc(CN3CCN(C)CC3)c(C(F)(F)F)c2)cc1-n1cc(-c2cnc(NCc3ccccc3)nc2)nn1 | 8.82 nM | 181 nM | 3500 nM | 28.2 nM | 1.89 nM
CCNc1ncc(-c2cn(-c3cc(C(=O)Nc4ccc(CN5CCN(C)CC5)c(C(F)(F)F)c4)ccc3C)nn2)cn1 | 1.26 nM | 20.2 nM | 405 nM | 3.04 nM | 0.2 nM
Cc1cn(-c2cc(NC(=O)c3ccc(C)c(-n4cc(-c5cnc6[nH]ncc6c5)nn4)c3)cc(C(F)(F)F)c2)cn1 | 3.37 nM | 25.7 nM | 656 nM | 4.72 nM | 0.73 nM
Cc1ccc(C(=O)Nc2ccc(CN3CCN(C)CC3)c(C(F)(F)F)c2)cc1-n1cc(-c2cnc3ncccn23)nn1 | 3.87 nM | 16.2 nM | 8840 nM | 47.9 nM | 11.1 nM
Cc1ccc(Nc2ncc3c(n2)N(C)C(=O)N(c2cc(NC(=O)c4cccc(C(F)(F)F)c4)ccc2C)C3)cn1 | 0.44 nM | 2.6 nM | 6.18 nM | 3.15 nM | 0.08 nM
CC(C)c1ccc(C(=O)Nc2ccc(CN3CCN(C)CC3)c(C(F)(F)F)c2)cc1-n1cc(-c2cnc3[nH]ncc3c2)nn1 | 74 nM | 219 nM | 2060 nM | 420 nM | 14.2 nM
Cc1ccc(C(=O)Nc2ccc(CN3CCN(C)CC3)c(C(F)(F)F)c2)cc1-n1cc(-c2ccc3[nH]ncc3c2)nn1 | 12.4 nM | 109 nM | 754 nM | 56.2 nM | 12.2 nM
Cc1ccc(C(=O)Nc2ccc(CN3CCN(C)CC3)c(C(F)(F)F)c2)cc1-n1cc(-c2cnc3cccnn23)nn1 | 35.8 nM | 1.41 nM | > 10000 nM | 27.4 nM | 14.6 nM
Cc1ccc(C(=O)Nc2ccc(CN3CC[C@H](N(C)C)C3)c(C(F)(F)F)c2)cc1-n1cc(-c2cnc3[nH]ncc3c2)nn1 | 0.32 nM | 2.24 nM | 91.7 nM | 3.01 nM | 0.68 nM
Cc1ccc(C(=O)Nc2ccc(CN3CCN(C)CC3)c(C(F)(F)F)c2)cc1-n1cc(-c2cnc3ncnn3c2)nn1 | 40.9 nM | 76.8 nM | 533 nM | 316 nM | 11.2 nM
Cc1ccc(C(=O)Nc2cc(-n3cncn3)cc(C(F)(F)F)c2)cc1-n1cc(-c2cnc3[nH]ncc3c2)nn1 | 3.5 nM | 21.9 nM | 652 nM | 4.54 nM | 0.46 nM
Cc1ccc(C(=O)Nc2ccc(CN3CCN(C)CC3)c(C(F)(F)F)c2)cc1-n1cc(-c2cnc(N3CCCCC3)nc2)nn1 | 798 nM | 893 nM | 3590 nM | 1240 nM | 158 nM
Cc1ccc(C(=O)Nc2ccc(CN3CCN(C)CC3)c(C(F)(F)F)c2)cc1-n1cc(-c2cnn3cccnc23)nn1 | 2.45 nM | 17.1 nM | 1440 nM | 7.31 nM | 1.51 nM
Cc1ccc(C(=O)Nc2ccc(CN3CCN(C)CC3)c(C(F)(F)F)c2)cc1-n1cc(-c2cnc3[nH]nc(C)c3c2)nn1 | 0.39 nM | 4.74 nM | 79.6 nM | 2.03 nM | 0.15 nM
Cc1ccc(C(=O)Nc2ccc(CN3CCN(C)CC3)c(C(F)(F)F)c2)cc1-n1cc(-c2ccc3[nH]ccc3c2)nn1 | 70.4 nM | 800 nM | 999 nM | 435 nM | 19.6 nM
Cc1ccc(C(=O)Nc2ccc(CN3CCCC3)c(C(F)(F)F)c2)cc1-n1cc(-c2cnc3[nH]ncc3c2)nn1 | 0.66 nM | 12.1 nM | 939 nM | 2.47 nM | 0.19 nM

More lines, in order of falling IC50 (K562 [2]), values ahead:

IC50 (K562 [2]) | IC50 (K562 [3]) | IC50 (cells) | Structure (SMILES) | IC50 [1] | IC50 [4]
7.26 nM | 81.2 nM | 799 nM | Cc1ccc(C(=O)Nc2ccc(CN3CCN(C)CC3)c(C(F)(F)F)c2)cc1-n1cc(-c2cnc(NC(C)C)nc2)nn1 | 32.8 nM | 1.44 nM
7.04 nM | 72.8 nM | 3630 nM | Cc1ccc(C(=O)Nc2ccc(CN3CCN(C)CC3)c(C(F)(F)F)c2)cc1-n1cc(-c2cnc(NC3CCCCC3)nc2)nn1 | 28.3 nM | 1.57 nM
5.69 nM | 37.5 nM | 1160 nM | CN1CCN(Cc2ccc(NC(=O)c3ccc(C4CC4)c(-n4cc(-c5cnc6[nH]ncc6c5)nn4)c3)cc2C(F)(F)F)CC1 | 32.9 nM | 4.05 nM
3.41 nM | 41.1 nM | 1560 nM | Cc1ccc(C(=O)Nc2ccc(CN3CCOCC3)c(C(F)(F)F)c2)cc1-n1cc(-c2cnc3[nH]ncc3c2)nn1 | 4.46 nM | 0.46 nM
3.22 nM | 31.1 nM | 3510 nM | Cc1ccc(C(=O)Nc2ccc(CN3CCCCC3)c(C(F)(F)F)c2)cc1-n1cc(-c2cnc3[nH]ncc3c2)nn1 | 5.39 nM | 0.47 nM
2.9 nM | 34.2 nM | 620 nM | Cc1ncn(-c2cc(NC(=O)c3ccc(C)c(-n4cc(-c5cnc6[nH]ncc6c5)nn4)c3)cc(C(F)(F)F)c2)n1 | 3.68 nM | 0.4 nM
1.25 nM | 4.32 nM | 873 nM | Cc1ccc(C(=O)Nc2ccc(CN3CCC(N4CCN(C)CC4)CC3)c(C(F)(F)F)c2)cc1-n1cc(-c2cnc3[nH]ncc3c2)nn1 | 23.8 nM | 1.48 nM
1.24 nM | 19.2 nM | 579 nM | Cc1ccc(C(=O)Nc2ccc(CN3CCN(C)CC3)c(C(F)(F)F)c2)cc1-n1cc(-c2cnc(NC3CC3)nc2)nn1 | 3.01 nM | 0.22 nM
0.85 nM | 17.1 nM | 494 nM | Cc1ccc(C(=O)Nc2ccc(CN3CCN(C)CC3)c(C(F)(F)F)c2)cc1-n1cc(-c2cnc(N)nc2)nn1 | 3.35 nM | 0.2 nM
0.85 nM | 8.96 nM | 282 nM | CCc1ccc(C(=O)Nc2ccc(CN3CCN(C)CC3)c(C(F)(F)F)c2)cc1-n1cc(-c2cnc3[nH]ncc3c2)nn1 | 4.04 nM | 0.39 nM
0.8 nM | 8.45 nM | 294 nM | Cc1ccc(C(=O)Nc2ccc(CN3CCCN(C)CC3)c(C(F)(F)F)c2)cc1-n1cc(-c2cnc3[nH]ncc3c2)nn1 | 4.02 nM | 0.38 nM
0.67 nM | 11 nM | 299 nM | CNc1ncc(-c2cn(-c3cc(C(=O)Nc4ccc(CN5CCN(C)CC5)c(C(F)(F)F)c4)ccc3C)nn2)cn1 | 2.74 nM | 0.16 nM
0.67 nM | 6.56 nM | 527 nM | Cc1ccc(C(=O)Nc2ccc(CN3CCC(N(C)C)CC3)c(C(F)(F)F)c2)cc1-n1cc(-c2cnc3[nH]ncc3c2)nn1 | 2.76 nM | 0.43 nM
0.67 nM | 10.8 nM | 728 nM | CN1CCN(Cc2ccc(NC(=O)c3cccc(-n4cc(-c5cnc6[nH]ncc6c5)nn4)c3)cc2C(F)(F)F)CC1 | 3.98 nM | 1.34 nM
0.63 nM | 1.85 nM | 178 nM | Cc1ccc(C(=O)Nc2ccc(CN3CCN(C)CC3)c(C(F)(F)F)c2)cc1-n1cc(-c2cnc3ccccn23)nn1 | 4.54 nM | 0.16 nM
0.42 nM | 3.89 nM | 66.9 nM | Cc1ccc(C(=O)Nc2ccc(CN3CCN(C)CC3)c(C(F)(F)F)c2)cc1-n1cc(-c2cnc3[nH]ccc3c2)nn1 | 3.16 nM | 0.14 nM
0.31 nM | 3.15 nM | 544 nM | Cc1ccc(C(=O)Nc2ccc(CN3CC[C@@H](N(C)C)C3)c(C(F)(F)F)c2)cc1-n1cc(-c2cnc3[nH]ncc3c2)nn1 | 3.43 nM | 0.24 nM
0.25 nM | 3.55 nM | 473 nM | Cc1ccc(C(=O)Nc2ccc(CN3C[C@H]4CN(C)C[C@H]4C3)c(C(F)(F)F)c2)cc1-n1cc(-c2cnc3[nH]ncc3c2)nn1 | 3.66 nM | 0.4 nM
0.24 nM | 2.28 nM | 130 nM | CN1CCN(Cc2ccc(NC(=O)c3ccc(F)c(-n4cc(-c5cnc6[nH]ncc6c5)nn4)c3)cc2C(F)(F)F)CC1 | 3.9 nM | 0.1 nM
0.23 nM | 1.49 nM | 46.4 nM | CN1CCN(Cc2ccc(NC(=O)c3ccc(Br)c(-n4cc(-c5cnc6[nH]ncc6c5)nn4)c3)cc2C(F)(F)F)CC1 | 3.28 nM | 0.1 nM
